Results from the supplement of paper PMC11061612.

Tests used:
Experiment in all cases: combination Emax (second highest fraction inhibited in the dose matrix, 72 h); higher = more inhibition; extreme values may be limits of the assay
NB10 (Neuroblastoma) = tested on: NB10 (Neuroblastoma)
In short: (§1)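 Cell lines in DMEM/F12 or RPMI with 10% FBS were plated in 1536-well plates, held 24 hours at 37°C, 5% CO2, then given two-drug dose matrices for 72 hours (DMSO typically 0.2%). Viability was read by CellTiter-Glo 2.0 luminescence and scaled as inhibition from 0 (vehicle wells) to 1 (blank wells). Combination Emax is the second-highest inhibition in the matrix; Bliss excess is observed combination effect minus expected EA + EB − EA·EB, EA and EB being single-agent effects.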

[1] = tested on: Calu-3 (Lung Adenocarcinoma)
In short: as §1

[2] = tested on: TE-9 (Esophageal Squamous Cell Carcinoma)
In short: as §1

[3] = tested on: RO82-W-1 (Thyroid Gland Carcinoma)
In short: as §1

[4] = tested on: HCC-78 (Lung Adenocarcinoma)
In short: as §1

[5] = tested on: ME-1 (Acute Myeloid Leukemia)
In short: as §1

[6] = tested on: TE-15 (Esophageal Squamous Cell Carcinoma)
In short: as §1

[7] = tested on: DoTc2-4510 (Cervical Carcinoma)
In short: as §1

| Compound | combination Emax (NB10 (Neuroblastoma)) | combination Emax [1] | combination Emax [2] | combination Emax [3] | combination Emax [4] | combination Emax [5] | combination Emax [6] | combination Emax [7] |
| --- | --- | --- | --- | --- | --- | --- | --- | --- |
| Cc1cc2ncnn2cc1Nc1ncc2c(n1)n(C1CCOCC1)c(=O)n2C [AZD7648] + COc1cc([C@@H]2c3cc4c(cc3[C@@H](O[C@@H]3O[C@@H]5CO[C@@H](C)O[C@H]5[C@H](O)[C@H]3O)[C@H]3COC(=O)[C@H]23)OCO4)cc(OC)c1O [Etoposide] (first compound max 10 µM, 7x7, partner max 10 µM) | 0.872 | 0.744 | 0.287 | 0.288 | 0.774 | 0.272 | 0.835 | 0.721 |
| O=C(c1cc(Cc2n[nH]c(=O)c3ccccc23)ccc1F)N1CCN(C(=O)C2CC2)CC1 [Olaparib] + CC1(C)CCC(CN2CCN(c3ccc(C(=O)NS(=O)(=O)c4ccc(NCC5CCOCC5)c([N+](=O)[O-])c4)c(Oc4cnc5[nH]ccc5c4)c3)CC2)=C(c2ccc(Cl)cc2)C1 [Venetoclax] (first compound max 10 µM, 7x7, partner max 1 µM) | 0.348 | 0.102 | 0.171 | 0.129 | 0.0996 | 1 | 0.251 | 0.259 |
| Cc1c2c(nn1C)CSCc1cc(n(C)n1)CSc1cc(c3ccccc3c1)OCCCc1c(C(=O)O)n(C)c3c-2c(Cl)ccc13 [AZD5991] + Nc1ccn([C@@H]2O[C@H](CO)[C@@H](O)C2(F)F)c(=O)n1 [Gemcitabine] (first compound max 1 µM, 7x7, partner max 0.3 µM) | 0.778 | 0.534 | 0.343 | 0.0885 | 0.787 | 0.676 | 0.931 | 0.544 |
| C[C@@H](Nc1cc(F)cc(F)c1)c1cc(C(=O)N(C)C)cc2c(=O)cc(N3CCOCC3)oc12 [AZD8186] + CC(=O)c1c(C)c2cnc(Nc3ccc(N4CCNCC4)cn3)nc2n(C2CCCC2)c1=O [Palbociclib] (first compound max 10 µM, 7x7, partner max 10 µM) | 0.403 | 0.281 | 0.109 | 0.27 | 0.365 | 0.233 | 0.597 | 0.297 |
| N#Cc1cnc(Nc2cc(NC[C@H]3CNCCO3)c(C(F)(F)F)cn2)cn1 [SRA737] + C=CCn1c(=O)c2cnc(Nc3ccc(N4CCN(C)CC4)cc3)nc2n1-c1cccc(C(C)(C)O)n1 [AZD1775] (first compound max 10 µM, partner max 1 µM) | 0.84 | 0.495 | 0.7 | 0.116 | 0.714 | 0.566 | 0.821 | 0.725 |
| Cc1c2c(nn1C)CSCc1cc(n(C)n1)CSc1cc(c3ccccc3c1)OCCCc1c(C(=O)O)n(C)c3c-2c(Cl)ccc13 [AZD5991] + CC(=O)O[C@H]1C(=O)[C@@]2(C)[C@H]([C@H](OC(=O)c3ccccc3)[C@]3(O)C[C@H](OC(=O)[C@H](O)[C@@H](NC(=O)c4ccccc4)c4ccccc4)C(C)=C1C3(C)C)[C@]1(OC(C)=O)CO[C@@H]1C[C@@H]2O [Paclitaxel] (first compound max 1 µM, 7x7, partner max 3 µM) | 0.915 | 0.346 | 0.789 | 0.401 | 0.433 | 0.715 | 0.998 | 0.544 |
| C[C@@H](Nc1cc(F)cc(F)c1)c1cc(C(=O)N(C)C)cc2c(=O)cc(N3CCOCC3)oc12 [AZD8186] + C1CN(CCC1(C(=O)N[C@@H](CCO)C2=CC=C(C=C2)Cl)N)C3=NC=NC4=C3C=CN4 [AZD5363] (first compound max 10 µM, 7x7, partner max 10 µM) | 0.228 | 0.318 | 0.198 | 0.201 | 0.34 | 0.103 | 0.496 | 0.286 |
| Cc1nc(-c2cn3c(n2)-c2ccc(-c4cnn(C(C)(C)C(N)=O)c4)cc2OCC3)n(C(C)C)n1 [Taselisib] + O=C(Nc1ccc2[nH]nc(-c3ccncc3)c2c1)[C@@H]1CCN(CC(=O)N2CCN(c3ccc(-c4ncccn4)cc3)CC2)C1 [SCH772984] (first compound max 10 µM, 7x7, partner max 5 µM) | 0.791 | 0.855 | 0.691 | 0.193 | 0.664 | 0.272 | 0.832 | 0.691 |
| O=C(c1cc(Cc2n[nH]c(=O)c3ccccc23)ccc1F)N1CCN(C(=O)C2CC2)CC1 [Olaparib] + COc1nnc2ccc(N3CCC(c4ccc(OCCN5CCN(C)C(=O)[C@H]5C)cc4)CC3)nn12 [AZD5153] (first compound max 10 µM, 7x7, partner max 1 µM) | 0.406 | 0.516 | 0.189 | 0.274 | 0.325 | 0.403 | 0.516 | 0.263 |
| N#Cc1cnc(Nc2cc(NC[C@H]3CNCCO3)c(C(F)(F)F)cn2)cn1 [SRA737] + CCc1c2c(nc3ccc(O)cc13)-c1cc3c(c(=O)n1C2)COC(=O)[C@]3(O)CC [SN-38] (first compound max 10 µM, 7x7, partner max 0.3 µM) | 0.769 | 0.674 | 0.589 | 0.214 | 0.959 | 0.675 | 0.931 | 0.936 |
| Cc1c2c(nn1C)CSCc1cc(n(C)n1)CSc1cc(c3ccccc3c1)OCCCc1c(C(=O)O)n(C)c3c-2c(Cl)ccc13 [AZD5991] + CS(=O)(=O)CCNCc1ccc(-c2ccc3ncnc(Nc4ccc(OCc5cccc(F)c5)c(Cl)c4)c3c2)o1 [Lapatinib] (first compound max 1 µM, 7x7, partner max 10 µM) | 0.177 | 0.895 | 0.193 | 0.141 | 0.173 | 0.646 | 0.764 | 0.549 |
| C[C@@H](Oc1cc(-c2cnn(C3CCNCC3)c2)cnc1N)c1c(Cl)ccc(F)c1Cl [Crizotinib] + CC1=C(C(=CC=C1)Cl)NC(=O)C2=CN=C(S2)NC3=CC(=NC(=N3)C)N4CCN(CC4)CCO [Dasatinib] (first compound max 10 µM, 7x7, partner max 2 µM) | 0.792 | 0.767 | 0.691 | 0.618 | 0.754 | 0.258 | 0.79 | 0.897 |
| C[C@@H]1COCCN1c1cc(C2([S@](C)(=N)=O)CC2)nc(-c2ccnc3[nH]ccc23)n1 [AZD6738] + C1CC(C1)(C(=O)[O-])C(=O)[O-].N.N.[Pt+2] [Carboplatin] (first compound max 10 µM, 7x7, partner max 10 µM) | 0.689 | 0.555 | 0.264 | 0.151 | 0.662 | 0.348 | 0.857 | 0.492 |
| CC1(C)CCC(CN2CCN(c3ccc(C(=O)NS(=O)(=O)c4ccc(NCC5CCOCC5)c([N+](=O)[O-])c4)c(Oc4cnc5[nH]ccc5c4)c3)CC2)=C(c2ccc(Cl)cc2)C1 [Venetoclax] + CS(=O)(=O)CCNCc1ccc(-c2ccc3ncnc(Nc4ccc(OCc5cccc(F)c5)c(Cl)c4)c3c2)o1 [Lapatinib] (first compound max 1 µM, 7x7, partner max 10 µM) | 0.0761 | 0.74 | 0.189 | 0.144 | 0.143 | 1 | 0.742 | 0.522 |
| CS(=O)(=O)CCNCc1ccc(-c2ccc3ncnc(Nc4ccc(OCc5cccc(F)c5)c(Cl)c4)c3c2)o1 [Lapatinib] + Cn1cnc2c(F)c(Nc3ccc(Br)cc3Cl)c(C(=O)NOCCO)cc21 [Selumetinib] (first compound max 10 µM, 7x7, partner max 10 µM) | 0.481 | 0.933 | 0.149 | 0.193 | 0.228 | 0.397 | 0.775 | 0.597 |
| C=CCn1c(=O)c2cnc(Nc3ccc(N4CCN(C)CC4)cc3)nc2n1-c1cccc(C(C)(C)O)n1 [AZD1775] + Nc1ccn([C@@H]2O[C@H](CO)[C@@H](O)C2(F)F)c(=O)n1 [Gemcitabine] (first compound max 1 µM, partner max 0.3 µM) | 0.933 | 0.636 | 0.502 | 0.194 | 0.851 | 0.526 | 0.944 | 0.729 |
| C[C@@H]1COCCN1c1cc(C2([S@](C)(=N)=O)CC2)nc(-c2ccnc3[nH]ccc23)n1 [AZD6738] + Nc1ccn([C@@H]2O[C@H](CO)[C@@H](O)C2(F)F)c(=O)n1 [Gemcitabine] (first compound max 10 µM, 7x7, partner max 0.3 µM) | – | 0.694 | 0.538 | 0.223 | 0.901 | 0.774 | 0.939 | 0.795 |
